Test results published in PMC4526861, “Inhibition of protein kinase C by isojacareubin suppresses hepatocellular carcinoma metastasis and induces apoptosis in vitro and in vivo” (Scientific Reports, 2015).

Columns and labels:
HepG2 cells [1] = assay: Cell proliferation assay (CCK-8), HepG2; assay type: cell-based, human; conditions: for IC50: Homo sapiens, HepG2, mean ± SD, at least three independent experiments; for Inhibitory Ratio (%) HepG2: 50 μM
Method: (§1) The human HCC cell lines QGY-7703, SMMC-7721 and HepG2 and the liver cell line QSG-7701 were supplied by the Cell Resource Center, Institute of Life Sciences, Chinese Academy of Medical Science. QGY-7703, SMMC-7721 and QSG-7701 cells were cultured in 1640 medium (Gibco), and HepG2 cells were cultured in DMEM medium (Gibco) at 37 °C in moist air supplemented with 5% CO2. All media were supplemented with 10% fetal bovine serum (FBS) and 100 Units/mL of penicillin/streptomycin.
(§2) The cell viability assay was performed as previously reported using a Cell Counting Kit-8 (CCK-8; Dojindo, Kumamoto, Japan)[33][34]. The relative cell viability was presented as % inhibition and calculated using the following formula: […]

QGY-7703 cells = assay: Cell proliferation assay (CCK-8), QGY-7703; assay type: cell-based, human; conditions: for IC50: Homo sapiens, QGY-7703, mean ± SD, at least three independent experiments; for Inhibitory Ratio (%) QGY-7703: 50 μM
Method: as §1, §2

SMMC-7721 cells = assay: Cell proliferation assay (CCK-8), SMMC-7721; assay type: cell-based, human; conditions: Homo sapiens, SMMC-7721; mean ± SD, at least three independent experiments
Method: as §1, §2

QSG-7701 hepatocytes = assay: Cell proliferation assay (CCK-8), QSG-7701 hepatocytes; assay type: cell-based, human; conditions: Homo sapiens, QSG7701; nonmalignant hepatocytes; mean ± SD
Method: as §1, §2

HepG2 cells [2] = assay: Apoptosis assay, Annexin V-FITC/PI flow cytometry; assay type: cell-based, human; conditions: 48 h
Method: To further explore the potential mechanisms of the antiproliferative effects induced by compound 7 and ISJ, Annexin V-FITC/PI double staining was performed to quantify cellular apoptosis by flow cytometry. HepG2 cells were cultured for 48 h in the absence or presence of compound 7 or ISJ at different concentrations (5 or 15 μM).
HepG2 cells were seeded in six-well plates (5 × 10^5 cells/mL) for 24 h and then treated with various amounts of the compounds or 1% DMSO (as control). After 48 h, the cells floating in the medium were collected, and the adherent cells were detached with 0.05% trypsin, washed twice with cold PBS, and centrifuged at 1000 rpm for 5 min at 4 °C. Subsequently, HepG2 cells were gently resuspended in the binding buffer. Thereafter, the cells were stained using the Annexin V-FITC/PI apoptosis detection kit (BD Biosciences, San Jose, CA, USA). After incubation at room temperature for 15 min in the dark, the apoptotic cells were immediately analyzed by flow cytometry (FACS Calibur).

HepG2 cells [3] = assay: Wound healing (migration) assay; assay type: cell-based, human; conditions: 10 μM, 24 h
Method: (§3) Cell migration and invasion potencies were studied using wound healing and Matrigel invasion assays. The wound healing assay was performed by scratching the cell surface with a 10 μL pipette tip. Then, the cells were treated with compound 7 and ISJ (10 μM) and incubated for 24 h before being photographed under a microscope (DMI3000 B, Leica). Wound closure was evaluated using ImageJ software. Invasion through a Matrigel-coated filter was measured in transwell chambers (Corning Costa) as described previously, with minor modifications. Briefly, HepG2 Cells (2 × 10^5/well) were suspended in serum-free medium and added to the upper chamber of the Matrigel plate. FBS (10%) was used as the chemoattractant in the lower chamber. After incubation for 24 h, the non-invading cells were removed from the upper surface of the insert membrane with a cotton swab. The invading cells were fixed with methanol and stained with Giemsa (Sigma). Cells in five randomly selected fields were photographed, and the numbers of cells that crossed the membrane were counted.

HepG2 cells [4] = assay: Matrigel invasion assay; assay type: cell-based, human; conditions: Homo sapiens, HepG2, 24 h, read-out: inhibition of invasiveness compared to control
Method: as §3

PKC = PKC activity assay (PepTag non-radioactive, HepG2 lysates); assay type: biochemical, human; conditions: 3 h
Method: The activity of PKC in HepG2 cells was assessed 3 h after the addition of compound 7 or ISJ by measuring the phosphorylation of a PKC-specific target peptide. Compared to the basal control (in the absence of any compound), PKC activity was inhibited by compound 7 and ISJ.
Figure 3 Effects of compound 7 and ISJ on PKC activity in HepG2 cells. The proteins from lysed HepG2 cells were prepared and measured for their ability to phosphorylate a PKC-specific peptide substrate (PLSRTLSVAAK) in a non-radioactive assay. (a) Lanes 1 and 2 show the negative (water only) and positive controls (with 20 ng purified PKC). Supernatants from HepG2 cells were subjected to the PKC activity assay in the absence (basal control, lane 3) or presence (lanes 4–7) of the compounds. Compound 7 (lanes 4 and 5) and ISJ (lanes 6 and 7) were added separately at 10 and 5 μM. (b) Quantification of (a); *P < 0.05 versus the basal control. Data are shown as the mean ± SD of three independent experiments.
The PKC activity assay was carried out as previously reported, according to the instructions of the PepTag non-radioactive PKC assay kit (Promega)[60]. The bands were photographed using the Syngene GBOX-iCHEMI-XR system, and the phosphorylated bands were cut out for quantification measurement at 570 nm.

PKCζ = assay: Western blot of PKC isoform expression in cytosol and membrane; assay type: cell-based, human; conditions: HepG2, 24 h incubation
Method: To further determine whether compound 7 and ISJ represent potential candidates for selective PKC expression inhibitors against hepatoma, the expression of PKC isoforms in HepG2 cells was characterized by western blotting. After 24 h of incubation with GFX, GO, ISJ and compound 7 at the indicated concentrations, PKC proteins from the cytosol and membrane of HepG2 cells were evaluated. ISJ and compound 7 treatments reduced both the cytosol and cell membrane expression of PKCζ.
(§4) The total membrane and cytosolic proteins were extracted using a Membrane and Cytosol Protein Extraction Kit (Beyotime). Extracted proteins from cells or animal tissues were separated by SDS-PAGE and transferred to polyvinylidene difluoride (PVDF) membranes (Bio-Rad). The PVDF membranes were blocked with 5% nonfat milk and incubated with primary antibodies overnight, followed by incubation with a donkey anti-rabbit or anti-mouse secondary antibody (IRDye 800, LI-COR, Biosciences). The images were captured using the Odyssey Infrared Imaging System (LI-COR, Biosciences), according to the manufacturer's instructions. The intensity was quantitative with Quantity One software (Bio-Rad). To ensure equal protein loading, each membrane was stripped and reprobed with an anti-β-actin antibody. All experiments were repeated independently no less than three times.

HepG2 xenografts = assay: Antitumor activity in vivo, HepG2 xenograft; set-up: species or system BALB/c-nu nude mice; conditions: 5 mg/kg, tail vein injection every other day for two weeks
Method: Four-week-old male BALB/c-nu nude mice (15–20 g) were obtained from the Shanghai SLAC Laboratory Animal Co., Ltd. (Shanghai, China). The animals were maintained under specific pathogen-free conditions with food and water supplied ad libitum in the Laboratory Animal Center of the Second Military Medical University. All animal experiments were carried out in accordance with the Guide for the Care and Use of Laboratory Animals of the National Institutes of Health and were approved by the Committee on the Ethics of Animal Experiments of the Second Military Medical University, China.
(§5) HepG2 cells were harvested and resuspended in PBS. A total of 5 × 10^6 cells were subcutaneously injected into the right flank. Tumor volume was calculated using the following formula: V = (L × W^2)/2, where L is the length and W is the width of the tumor nodules measured with vernier calipers. Once the volume of the tumors reached 75–100 mm^3, the mice were randomly divided into three groups (n = 5). The mice were treated every other day for two weeks with tail vein injections of either vehicle (5% ethanol and 2.5% polyethylene glycol in saline), compound 7, or ISJ (5 mg/kg in the vehicle). Body weights were measured before each drug injection. After the 15th day, the mice were euthanized, and the tumors were isolated, weighed and photographed.

[5] = Body weight in xenograft study; assay type: in vivo, BALB/c-nu nude mice; conditions: 5 mg/kg, tail vein, two weeks
Method: as §5

[6] = test system: c-PARP, c-Cas3 and c-Cas9 in xenograft tumors; assay: Histology, IHC and immunoblot of xenograft tumors; assay type: in vivo, BALB/c-nu nude mice; conditions: 5 mg/kg
Method: as §4
To further confirm the antitumor activities of compound 7 and ISJ in vivo, histological analysis was performed on the hepatoma xenografts. Briefly, the samples were fixed in a 10% formalin solution, processed, embedded, sectioned and either H&E stained to reveal tumor tissue necrosis or IHC stained using antibodies against c-PARP, c-Cas3 or c-Cas9. The H&E and IHC images were obtained on a Leica DMI3000 B phase-contrast microscopy. The immunoreactive areas in the IHC images were quantified using ImagePro Plus 6.0 software (Media Cybernetics, Silver Spring, MD). The integrated optical density (IOD) values were represented as the mean ± SEM.

advanced HCC = test system: advanced HCC; set-up: method as in PMID 18650514; conditions: patients with advanced HCC; cited from earlier work

SMILES | Inhibitory Ratio (%) HepG2 (HepG2 cells [1]) | Inhibitory Ratio (%) QGY-7703 (QGY-7703 cells) | other results
O=c1[nH]cc(F)c(=O)[nH]1 [5-Fu, 5-Fluorouracil, reference compound] | – | – | IC50 (HepG2 cells [1]): 12.48 ± 0.11 µM; IC50 (QGY-7703 cells): 15.66 ± 0.07 µM; IC50 (SMMC-7721 cells): 14.6 ± 0.36 µM; IC50 (QSG-7701 hepatocytes): 0.6 ± 0.03 µM
COc1cc(OC)c2c(=O)c3ccc(OC)c(OC)c3oc2c1 [compound 5] | 22.61% | 20.81% | melting point: 138 to 140 °C
O=c1c2ccc(O)c(O)c2oc2cc(O)cc(O)c12 [compound 6] | 13.80% | −0.66% | –
O=c1c2ccc3c(c2oc2cc(O)cc(O)c12)OC(c1ccccc1)(c1ccccc1)O3 [compound 7, 7,9-dihydroxy-2,2-diphenyl-6H-[1,3]dioxolane[4,5-c]xanthen-6h-one] | 90.99% | 79.93% | IC50 (HepG2 cells [1]): 7.34 ± 0.09 µM; IC50 (QGY-7703 cells): 9.88 ± 0.18 µM; IC50 (SMMC-7721 cells): 6.35 ± 0.42 µM; IC50 (QSG-7701 hepatocytes): 53.51 ± 0.13 µM; number of apoptotic cells compared to the control group (HepG2 cells [2]; 5 μM): did not alter; percentage of apoptotic cells (HepG2 cells [2]; 15 μM): increased significantly; decrease of HepG2 cell migration compared to control (HepG2 cells [3]): 76.4%; inhibition at 10 µM (HepG2 cells [4]): 69%; inhibition of PKC activity compared to the basal control (PKC; 5 μM): 40.9%; inhibition of PKC activity compared to the basal control (PKC; 10 μM): 54.1%; PKCζ expression in cytosol and cell membrane (PKCζ): reduced; reduction of tumor weight compared to controls (HepG2 xenografts): 49.4%; change in body weight compared to vehicle-treated controls [5]: no significant change; H&E staining of xenograft tumors [6]: significant tissue death; IHC c-PARP, c-Cas3 and c-Cas9 levels in tumors [6]: upregulated expression; immunoblot c-PARP, c-Cas3 and c-Cas9 levels in tumor tissue [6]: increased
C#CC(C)(C)Oc1cc(O)c2c(=O)c3ccc4c(c3oc2c1)OC(c1ccccc1)(c1ccccc1)O4 [compound 8] | 6.88% | −9.85% | –
C#CC(C)(C)Oc1cc(OS(=O)(=O)c2ccc(C)cc2)c2c(=O)c3ccc4c(c3oc2c1)OC(c1ccccc1)(c1ccccc1)O4 [compound 9] | 12.46% | −3.98% | –
Cc1ccc(S(=O)(=O)Oc2cc3c(c4oc5c6c(ccc5c(=O)c24)OC(c2ccccc2)(c2ccccc2)O6)C=CC(C)(C)O3)cc1 [compound 10] | 18.01% | 0.66% | –
Cc1ccc(S(=O)(=O)Oc2cc3c(c4oc5c(O)c(O)ccc5c(=O)c24)C=CC(C)(C)O3)cc1 [compound 11] | 45.36% | 21.44% | –
COc1ccc2c(=O)c3c(OC)cc(OC)c(C=O)c3oc2c1OC [compound 12] | 26.12% | 20.97% | –
CCOC(=O)/C=C/c1c(OC)cc(OC)c2c(=O)c3ccc(OC)c(OC)c3oc12 [compound 13] | 47.29% | 16.17% | –
CCOC(=O)[C@@H](O)[C@H](O)c1c(OC)cc(OC)c2c(=O)c3ccc(OC)c(OC)c3oc12 [compound 14] | 25.40% | 13.15% | –
COc1ccc2c(=O)c3c(OC)cc(OC)c(I)c3oc2c1OC [compound 15] | 24.07% | −1.75% | –
COc1ccc2c(=O)c3c(OC)cc(OC)c(/C=C/C(C)(C)O)c3oc2c1OC [compound 16] | 15.95% | 13.26% | –
CNC(=O)c1cc(Oc2ccc(NC(=O)Nc3ccc(Cl)c(C(F)(F)F)c3)cc2)ccn1 [sorafenib] | – | – | improvement of overall survival (advanced HCC): approximately three
